Laboratory results: patent US12077503B2, “Substituted cyclic amides and their use as herbicides” (FMC CORPORATION, priority 2015, dated 2024)

Assays:
Assay type in all cases: in vivo
[1] = tested on: barnyardgrass (Echinochloa crus-galli); assay: Test G Pre-Emergence Protocol; conditions: Echinochloa crus-galli, pre-emergence, 312 h, evaluated after 13 days
Method in brief: (§1)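 Test compound in 0.5% Tween 20 acetone/water (50:50) was applied at three rates (15.625, 62.5, 250 g/ha) to soil sown one day earlier. After 13 days plants were scored for injury, where 0 means unaffected and 100 means completely damaged.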

corn (Zea mays) [2] = assay: Test G Pre-Emergence Protocol; conditions: Zea mays, pre-emergence, 312 h, evaluated after 13 days
Method in brief: as §1

[3] = tested on: ivy-leaved morning glory (Ipomoea hederacea); assay: Test G Pre-Emergence Protocol; conditions: Ipomoea, pre-emergence, 312 h, evaluated after 13 days
Method in brief: as §1

[4] = tested on: velvetleaf (Abutilon theophrasti); assay: Test G Pre-Emergence Protocol; conditions: Abutilon theophrasti, pre-emergence, 312 h, evaluated after 13 days
Method in brief: as §1

[5] = tested on: giant foxtail (Setaria faberi); assay: Test G Pre-Emergence Protocol; conditions: Setaria faberi, pre-emergence, 312 h, evaluated after 13 days
Method in brief: as §1

[6] = tested on: redroot pigweed (Amaranthus retroflexus); assay: Test G Pre-Emergence Protocol; conditions: Amaranthus retroflexus, pre-emergence, 312 h, evaluated after 13 days
Method in brief: as §1

[7] = tested on: barnyardgrass (Echinochloa crus-galli); assay: Test G Post-Emergence Protocol; conditions: Echinochloa crus-galli, post-emergence, 312 h, read-out: Barnyardgrass damage rating
Method in brief: (§2)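 Eight days post-sowing, plants received a spray of test compound (acetone/water 50:50, 0.5% Tween 20) at 15.625, 62.5 or 250 g/ha. Glasshouse regime thereafter: 24/16 °C, 14 h light, 65% humidity. Assessment after 13 days on a 0–100 damage scale.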

corn (Zea mays) [8] = assay: Test G Post-Emergence Protocol; conditions: Zea mays, post-emergence, 312 h, read-out: Corn damage rating
Method in brief: as §2

[9] = tested on: ivy-leaved morning glory (Ipomoea hederacea); assay: Test G Post-Emergence Protocol; conditions: Ipomoea, post-emergence, 312 h, read-out: Morningglory, Ivy-leaved damage rating
Method in brief: as §2

[10] = tested on: velvetleaf (Abutilon theophrasti); assay: Test G Post-Emergence Protocol; conditions: Abutilon theophrasti, post-emergence, 312 h, read-out: Velvetleaf damage rating
Method in brief: as §2

[11] = tested on: giant foxtail (Setaria faberi); assay: Test G Post-Emergence Protocol; conditions: Setaria faberi, post-emergence, 312 h, read-out: Foxtail, Giant damage rating
Method in brief: as §2

[12] = tested on: redroot pigweed (Amaranthus retroflexus); assay: Test G Post-Emergence Protocol; conditions: Amaranthus retroflexus, post-emergence, 312 h, read-out: Pigweed, Redroot damage rating
Method in brief: as §2

[13] = 15.625 g ai/ha, evaluated after 13 days (100=total damage to plant; 0=no damage to plant)
[14] = 62.5 g ai/ha, evaluated after 13 days, 100=total damage to plant, 0=no damage to plant
[15] = 250 g ai/ha, evaluated after 13 days, 100=total damage to plant, 0=no damage to plant

CN1C[C@H](c2ccc(C(F)(F)F)cc2)[C@@H](C(=O)Nc2cnccc2[S+](C)[O-])C1=O (mixture of isomers) [Compound 1751] was tested. Which pest or weed control at 15.625 g/ha ([1]; 15.625 g ai/ha, read-out: Barnyardgrass damage rating (100=total damage to plant; 0=no damage to plant)) did it give?
The pest or weed control at 15.625 g/ha was 0%.

And the pest or weed control at 62.5 g/ha ([1]; 62.5 g ai/ha, 100=total damage to plant, 0=no damage to plant, read-out: Barnyardgrass damage rating)?
The pest or weed control at 62.5 g/ha was 0%.

What about the pest or weed control at 250 g/ha ([1]; 250 g ai/ha, read-out: Barnyardgrass damage rating (100=total damage to plant; 0=no damage to plant)) of the same compound?
The pest or weed control at 250 g/ha was 0%.

What about the plant injury at 15.625 g/ha (corn (Zea mays) [2]; 15.625 g ai/ha, read-out: Corn damage rating (100=total damage to plant; 0=no damage to plant)) of the same compound?
The plant injury at 15.625 g/ha was 0%.

And the plant injury at 62.5 g/ha (corn (Zea mays) [2]; 62.5 g ai/ha, 100=total damage to plant, 0=no damage to plant, read-out: Corn damage rating)?
The plant injury at 62.5 g/ha was 0%.

What about the plant injury at 250 g/ha (corn (Zea mays) [2]; 250 g ai/ha, read-out: Corn damage rating (100=total damage to plant; 0=no damage to plant)) of the same compound?
Its plant injury at 250 g/ha is 0%.

And the pest or weed control at 15.625 g/ha ([3]; 15.625 g ai/ha, read-out: Morningglory, Ivy-leaved damage rating (100=total damage to plant; 0=no damage to plant))?
Its pest or weed control at 15.625 g/ha is 0%.

What about the pest or weed control at 62.5 g/ha ([3]; 62.5 g ai/ha, 100=total damage to plant, 0=no damage to plant, read-out: Morningglory, Ivy-leaved damage rating) of the same compound?
The pest or weed control at 62.5 g/ha was 0%.

And the pest or weed control at 250 g/ha ([3]; 250 g ai/ha, read-out: Morningglory, Ivy-leaved damage rating (100=total damage to plant; 0=no damage to plant))?
The pest or weed control at 250 g/ha was 0%.

What about the pest or weed control at 15.625 g/ha ([4]; 15.625 g ai/ha, read-out: Velvetleaf damage rating (100=total damage to plant; 0=no damage to plant)) of the same compound?
Its pest or weed control at 15.625 g/ha is 0%.

What about the pest or weed control at 62.5 g/ha ([4]; 62.5 g ai/ha, 100=total damage to plant, 0=no damage to plant, read-out: Velvetleaf damage rating) of the same compound?
Its pest or weed control at 62.5 g/ha is 0%.

And the pest or weed control at 250 g/ha ([4]; 250 g ai/ha, read-out: Velvetleaf damage rating (100=total damage to plant; 0=no damage to plant))?
Its pest or weed control at 250 g/ha is 0%.

And the pest or weed control at 15.625 g/ha ([5]; 15.625 g ai/ha, read-out: Foxtail, Giant damage rating (100=total damage to plant; 0=no damage to plant))?
Its pest or weed control at 15.625 g/ha is 0%.

What about the pest or weed control at 62.5 g/ha ([5]; 62.5 g ai/ha, 100=total damage to plant, 0=no damage to plant, read-out: Foxtail, Giant damage rating) of the same compound?
The pest or weed control at 62.5 g/ha was 0%.

And the pest or weed control at 250 g/ha ([5]; 250 g ai/ha, read-out: Foxtail, Giant damage rating (100=total damage to plant; 0=no damage to plant))?
Its pest or weed control at 250 g/ha is 10%.

What about the pest or weed control at 15.625 g/ha ([6]; 15.625 g ai/ha, read-out: Pigweed, Redroot damage rating (100=total damage to plant; 0=no damage to plant)) of the same compound?
Its pest or weed control at 15.625 g/ha is 0%.

What about the pest or weed control at 62.5 g/ha ([6]; 62.5 g ai/ha, 100=total damage to plant, 0=no damage to plant, read-out: Pigweed, Redroot damage rating) of the same compound?
The pest or weed control at 62.5 g/ha was 0%.

What about the pest or weed control at 250 g/ha ([6]; 250 g ai/ha, read-out: Pigweed, Redroot damage rating (100=total damage to plant; 0=no damage to plant)) of the same compound?
The pest or weed control at 250 g/ha was 10%.

And the pest or weed control at 15.625 g/ha [7, 13]?
Its pest or weed control at 15.625 g/ha is 0%.

What about the pest or weed control at 62.5 g/ha [7, 14] of the same compound?
The pest or weed control at 62.5 g/ha was 0%.

And the pest or weed control at 250 g/ha [7, 15]?
Its pest or weed control at 250 g/ha is 0%.

And the plant injury at 15.625 g/ha (corn (Zea mays) [8]; [13])?
Its plant injury at 15.625 g/ha is 0%.

And the plant injury at 62.5 g/ha (corn (Zea mays) [8]; [14])?
The plant injury at 62.5 g/ha was 0%.

And the plant injury at 250 g/ha (corn (Zea mays) [8]; [15])?
Its plant injury at 250 g/ha is 0%.

What about the pest or weed control at 15.625 g/ha [9, 13] of the same compound?
The pest or weed control at 15.625 g/ha was 0%.

What about the pest or weed control at 62.5 g/ha [9, 14] of the same compound?
Its pest or weed control at 62.5 g/ha is 0%.

What about the pest or weed control at 250 g/ha [9, 15] of the same compound?
The pest or weed control at 250 g/ha was 0%.

And the pest or weed control at 15.625 g/ha [10, 13]?
The pest or weed control at 15.625 g/ha was 0%.

And the pest or weed control at 62.5 g/ha [10, 14]?
The pest or weed control at 62.5 g/ha was 0%.

And the pest or weed control at 250 g/ha [10, 15]?
Its pest or weed control at 250 g/ha is 10%.

And the pest or weed control at 15.625 g/ha [11, 13]?
Its pest or weed control at 15.625 g/ha is 0%.

What about the pest or weed control at 62.5 g/ha [11, 14] of the same compound?
The pest or weed control at 62.5 g/ha was 0%.

What about the pest or weed control at 250 g/ha [11, 15] of the same compound?
The pest or weed control at 250 g/ha was 10%.

What about the pest or weed control at 15.625 g/ha [12, 13] of the same compound?
The pest or weed control at 15.625 g/ha was 0%.

And the pest or weed control at 62.5 g/ha [12, 14]?
The pest or weed control at 62.5 g/ha was 0%.

What about the pest or weed control at 250 g/ha [12, 15] of the same compound?
Its pest or weed control at 250 g/ha is 10%.
